Assays:
[1] = system: lipoprotein lipase (LPL); assay: Northern blot for lipoprotein lipase in troglitazone-treated M2 cells; type: cell-based, mouse; conditions: 10 μM Tro, 10 μM 20S, 10 days
Procedure: (§1) RNA isolation and Northern blot analysis—Following treatment of cells under appropriate experimental conditions, total RNA was isolated using the RNA isolation kit from Stratagene (La Jolla, Calif., U.S.A.). Total RNA ([…]) was run on a 1% agarose/formaldehyde gel and transferred to Duralon-UV membranes (Strategene, Calif., U.S.A.) and cross-linked with UV light. The membranes were hybridized overnight at 60 degree C. with ^32P-labeled mouse osteocalcin cDNA probe, mouse lipoprotein lipase (LPL), mouse adipocyte protein 2 (aP2) PCR-generated probes, human 28S or 18S rRNA probes obtained from Geneka Biotechnology (Montreal, Quebec, Canada) and Maxim Biotech (San Francisco, Calif., U.S.A.), respectively. […] The extent of gene induction was determined by densitometry.
(§2) Test 2: (A) M2 cells at confluence were treated in RPMI containing 10% FBS with control vehicle or 10 μM troglitazone (Tro) in the absence or presence of 10 μM 20S or 22S oxysterols. After 10 days, adipocytes were visualized by oil Red O staining and quantified by light microscopy, shown in (B). […] After 10 days, total RNA was isolated and analyzed for lipoprotein lipase (LPL), adipocyte P2 gene (aP2) or 18S rRNA expression by Northern blotting as described (Ref). […]

[2] = system: adipocyte P2 gene (aP2); assay: Northern blot for adipocyte P2 gene in troglitazone-treated M2 cells; type: cell-based, mouse; conditions: 10 μM Tro, 10 μM 20S, 10 days
Procedure: as §1, §2

## CC(C)CCC[C@](C)(O)[C@H]1CC[C@H]2[C@@H]3CC=C4C[C@@H](O)CC[C@]4(C)[C@H]3CC[C@@]21C [20S, 20(S)-hydroxycholesterol]
[1]
  expression of lipoprotein lipase (LPL): inhibition
[2]
  expression of adipocyte P2 gene (aP2): inhibition

From patent US7897588B2, “Agents and methods for enhancing bone formation” (The Regents of the University of California, priority 2003, dated 2011)
